How the values were obtained:
[1] = target: T1, α1/β2/γ2 GABAA receptor (Homo sapiens, UniProt P14867+P18507+P47870); assay: GABAA receptor activation in oocytes; format: cell-based; conditions: 100 μM, oocytes at −70 mV; 5 μM muscimol as positive control
T1 construct: expressed in transfected cells; host or cells: oocytes
Description: Oocytes were kept at −70 mV throughout the experiment.

[2] = target: T2, hNav1.2 (Homo sapiens, UniProt Q99250); assay: Two-electrode voltage-clamp recording of hNav1.2 gating in Xenopus oocytes; format: cell-based; conditions: for Activation (V1/2): hNav1.2, 100 μM drug, DMSO control −31.7 ± 1.2 mV; for Inactivation (V1/2): hNav1.2, steady-state inactivation, 100 μM drug, DMSO control −59.7 ± 0.4 mV
T2 construct: host or cells: Xenopus oocytes (cRNA injection)

[3] = target: T3, hNav1.1 (Homo sapiens, UniProt P35498); assay: Two-electrode voltage-clamp recording of hNav1.1 gating in Xenopus oocytes; format: cell-based; conditions: for effect on hNav1.1 persistent current / effect on hNav1.1 opening (G-V relationship): 100 μM; for effect on hNav1.1 persistent current: analyzed at the end of a 50 ms test pulse; for effect on hNav1.1 opening (G-V relationship): significance at p<0.005; for Activation (V1/2): hNav1.1 + β1 in Xenopus oocytes, ≤1% DMSO, DMSO control −38.2 ± 1.9 mV; for Activation (V1/2) / Inactivation (V1/2): 100 μM drug; for Inactivation (V1/2): hNav1.1, steady-state inactivation, DMSO control −49.4 ± 0.3 mV
T3 construct: host or cells: Xenopus oocytes (cRNA injection)

[4] = target: T4, hNav1.6 (Homo sapiens, UniProt Q9UQD0); assay: Two-electrode voltage-clamp recording of hNav1.6 gating in Xenopus oocytes; format: cell-based; conditions: for Activation (V1/2): hNav1.6, 100 μM drug, DMSO control −26.7 ± 1.1 mV; for Inactivation (V1/2): hNav1.6, steady-state inactivation, 100 μM drug, DMSO control −65.1 ± 0.8 mV
T4 construct: host or cells: Xenopus oocytes (cRNA injection)

[5] = cited from earlier work
[6] = target: T5, hNav1.3 (Homo sapiens, UniProt Q9NY46); assay: Two-electrode voltage-clamp recording of hNav1.3 gating in Xenopus oocytes; format: cell-based; conditions: for Activation (V1/2): hNav1.3, 100 μM drug, DMSO control −24.7 ± 1.6 mV; for Inactivation (V1/2): hNav1.3, steady-state inactivation, 100 μM drug, DMSO control −52.8 ± 0.9 mV
T5 construct: host or cells: Xenopus oocytes (cRNA injection)

[7] = system: rat hippocampal neurons; assay: Action potential threshold recordings in hippocampal neurons; format: cell-based; conditions: 100 μM Compound B
Experimental: Action potential threshold recordings in hippocampal neurons. Hippocampal neurons were dissected from Sprague Dawley rat embryos at embryonic day 18. Cells were treated with papain (Worthington Biochemical), dissociated with a pipette and plated over coverslips coated with collagen (Life Technologies) and poly-D-Lysine (Sigma-Aldrich). Astrocyte beds were prepared at a density of 80,000 cells/ml and cultured in DMEM (Life Technologies) with 10% Fetal Bovine Serum, 6 mM glutamine for 14 days in 5% CO2 at 37° C. Total medium was changed every week. Neurons were plated over confluent astrocyte beds at a density of 150,000 cells/ml and cultured for 3 weeks in Neurobasal media (Life Technologies) supplemented with B27 and 2 mM glutaMAX. Half of the media was changed every 3-4 days. Cells were treated for 3 hours with compound B in 0.3% DMSO or control (media containing 0.3% DMSO) before recording. Coverslips were transferred to a chamber perfused at 2 ml/minute at 32° C. with ACSF containing (in mM): 140 NaCl, 5 KCl, 2 CaCl2, 2 MgCl2, 10 HEPES, and 10 Glucose (pH 7.3 adjusted with NaOH). […] Action potential thresholds were measured by a series of 100 ms, 10 pA depolarizing current injections. At the minimal current injection needed to elicit an action potential, firing threshold was determined by calculating the potential at which the rate of rise crossed 40 V/s, using AxoGraph X software. […]

[8] = system: flurothyl-induced seizures in male Crl:CF1 mice; assay: Flurothyl seizure induction; format: in vivo, mouse; conditions: 75 mg/kg ip
Experimental: (§1) Animal husbandry and drug administration. Male Crl:CF1 mice (10-12 weeks old, Charles River) were housed under a 12 hour light-dark cycle with free access to food and water and all experiments were carried out between 10 am and 4 pm. 1-[phenyl-methyl]-1H-1,2,3-triazole-4-carboxamide-5-methyl (Compound B) (Sigma Aldrich) was suspended in a 40% solution of cyclodextrin (Sigma Aldrich) in sterile saline (0.9%) and 15 minutes prior to each seizure induction paradigm, 75 mg/kg of compound B was administered via intraperitoneal injection (ip) injection. Vehicle treated animals were similarly administrated 40% cyclodextrin and served as the controls for each experiment. The Emory University Institutional Animal Care and Use Committee approved all experimental protocols involving mice.
Flurothyl Seizure induction. Latencies to flurothyl-induced seizures were determined as previously described (Neurobiol Dis 49C, 211-220 (2012)). Briefly, flurothyl (2,2,2-trifluroethylether; Sigma Aldrich) was dispensed at a rate of 20 μl/minute into a Plexiglas chamber and latencies to three behavioral phenotypes were compared between vehicle-treated and compound B-treated (75 mg/kg) mice (n=12 per group): 1) the first myoclonic jerk, 2) a generalized tonic-clonic seizure, and 3) a generalized tonic-clonic seizure with tonic extension. Similar to picrotoxin-mediated seizure induction, the myoclonic jerk is the first observable behavioral phenotype followed by the generalized tonic-clonic seizure which is characterized by a loss of postural control with rapid movement of all four limbs for at least 5s. Lastly, the generalized tonic-clonic seizure with tonic hind limb extension involves the loss of postural control and rapid movement of all four limbs followed by downward extension of the limbs parallel to the body.
(§2) Statistical analysis. A Student's t-test was used to identify statistically significant differences in latencies between vehicle- and compound B-treated groups for each seizure phenotype following administration of flurothyl and picrotoxin. […] All data are presented as the mean±s.e.m.; p values<0.05 were considered significant.

[9] = system: 6 Hz psychomotor seizures in male Crl:CF1 mice; assay: 6 Hz psychomotor seizure induction; format: in vivo, mouse; conditions: 17 mA
Experimental: as §1
6 Hz psychomotor seizure induction. Topical anesthetic (0.5% tetracaine hydrochloride ophthalmic solution) was applied to the cornea 30 minutes before testing. Fifteen minutes prior to seizure induction, mice were administrated vehicle or compound B (n=12 per group). Each mouse was manually restrained and corneal stimulation (0.2 ms pulse, 6 Hz, 3s) was performed at a current intensity of 17 mA (ECT Unit 57800; Ugo Basile, Comerio Italy). […] The mice were randomized into two groups and in the first trial one group received the vehicle whereas the other was administered compound B. The second trial was performed one week later with each group receiving the opposite treatment.
as §2

[10] = system: picrotoxin-induced seizures in male Crl:CF1 mice; assay: Picrotoxin seizure induction; format: in vivo, mouse
Experimental: as §1
Seizure induction paradigms and analyses. Picrotoxin seizure induction—15 minutes prior to i.p. injection of picrotoxin (10 mg/kg, Sigma Aldrich), mice were administered vehicle or compound B (n=12 per group). Latencies to the first myoclonic jerk, forelimb clonus, and generalized tonic-clonic seizure were compared between compound B and vehicle-treated mice. The myoclonic jerk is characterized by a sudden jerk of the upper body whereas forelimb clonus involves rapid movement of the forelimbs for at least 5s. Finally, the generalized tonic-clonic seizure involves the loss of postural control with rapid movement of the limbs for at least 5s.
as §2

T1 sequence (P14867 28-456): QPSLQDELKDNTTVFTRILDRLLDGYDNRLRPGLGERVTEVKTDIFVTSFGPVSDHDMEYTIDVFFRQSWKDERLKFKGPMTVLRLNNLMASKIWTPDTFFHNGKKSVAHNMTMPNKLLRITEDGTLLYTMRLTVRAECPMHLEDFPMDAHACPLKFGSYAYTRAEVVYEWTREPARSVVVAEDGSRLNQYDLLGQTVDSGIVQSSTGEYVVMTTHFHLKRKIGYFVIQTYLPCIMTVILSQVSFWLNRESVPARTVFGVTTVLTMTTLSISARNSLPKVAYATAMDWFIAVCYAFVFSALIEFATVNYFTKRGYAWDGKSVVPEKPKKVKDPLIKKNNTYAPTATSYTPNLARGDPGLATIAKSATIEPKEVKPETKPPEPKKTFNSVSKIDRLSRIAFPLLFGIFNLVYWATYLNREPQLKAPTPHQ
T1 sequence (P47870 25-512 limits assumed): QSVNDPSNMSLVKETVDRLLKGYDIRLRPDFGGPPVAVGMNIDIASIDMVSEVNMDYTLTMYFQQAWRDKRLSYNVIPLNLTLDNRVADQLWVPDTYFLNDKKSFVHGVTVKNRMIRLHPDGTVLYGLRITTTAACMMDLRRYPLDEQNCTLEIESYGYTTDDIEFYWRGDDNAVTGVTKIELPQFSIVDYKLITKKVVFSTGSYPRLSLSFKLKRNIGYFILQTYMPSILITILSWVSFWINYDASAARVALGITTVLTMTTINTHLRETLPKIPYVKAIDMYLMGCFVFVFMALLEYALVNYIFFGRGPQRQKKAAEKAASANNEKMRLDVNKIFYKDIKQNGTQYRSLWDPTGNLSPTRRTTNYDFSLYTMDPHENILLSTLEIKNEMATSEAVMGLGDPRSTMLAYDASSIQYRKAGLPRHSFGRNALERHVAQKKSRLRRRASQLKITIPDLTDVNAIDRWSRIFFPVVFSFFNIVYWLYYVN
T1 sequence (P18507 40-475): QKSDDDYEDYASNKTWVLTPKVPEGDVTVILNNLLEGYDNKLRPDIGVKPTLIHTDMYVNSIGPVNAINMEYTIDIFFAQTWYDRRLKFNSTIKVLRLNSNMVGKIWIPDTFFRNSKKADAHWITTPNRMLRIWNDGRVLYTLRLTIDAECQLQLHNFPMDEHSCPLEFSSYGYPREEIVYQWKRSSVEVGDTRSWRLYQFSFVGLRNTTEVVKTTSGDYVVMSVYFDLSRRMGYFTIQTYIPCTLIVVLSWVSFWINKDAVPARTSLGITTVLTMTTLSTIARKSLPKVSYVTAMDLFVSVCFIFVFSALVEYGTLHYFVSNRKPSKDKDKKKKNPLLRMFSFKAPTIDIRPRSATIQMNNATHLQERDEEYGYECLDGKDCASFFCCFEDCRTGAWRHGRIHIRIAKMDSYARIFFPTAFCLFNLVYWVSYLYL

Row | SMILES | activation of α1/β2/γ2 GABAA receptor (inward currents) [1] | Activation (V1/2) [2] | Inactivation (V1/2) [2] | effect on hNav1.1 persistent current [3] | effect on hNav1.1 opening (G-V relationship) [3] | Activation (V1/2) [3] | Activation (V1/2) [4] | Inactivation (V1/2) [4] | Activation (V1/2) [6] | Inactivation (V1/2) [6] | Inactivation (V1/2) [3] | other results
1 | NC(=O)c1cn(Cc2c(F)cccc2F)nn1 [Rufinamide, 1-[(2,6-difluorophenyl)methyl]-1H-1,2,3-Triazole-4-carboxamide, reference compound] | do not activate | −29.5 ± 1.2 mV | −57.7 ± 0.5 mV | did not alter | dramatic depolarizing shift | −30.6 ± 0.9 mV | −28.1 ± 0.8 mV | −60.0 ± 0.7 mV | −24.5 ± 2.4 mV | −52.6 ± 1.6 mV |  | alteration of the midpoint of hNav1.6 channel availability ([4]; hNav1.6, 100 μM rufinamide): about +5 mV; solubility in DMSO ([5]; DMSO): up to 9 mg/ml; solubility in water ([5]; water): slightly soluble
2 | NC(=O)c1nnn(Cc2ccc(F)cc2)c1N [Compound D, 1-[(4-fluorophenyl)methyl]-1H-1,2,3-Triazole-4-carboxamide-5-amine] |  |  |  |  | not significant | −32.5 ± 2.3 mV |  |  |  |  | −49.8 ± 1.6 mV | 
3 | Cc1c(C(N)=O)nnn1Cc1ccccc1 [Compound B, 1-[phenyl-methyl]-1H-1,2,3-Triazole-4-carboxamide-5-methyl] | do not activate | −23.6 ± 1.1 mV | −53.6 ± 1.2 mV | neither of these compounds influences | clearly inhibit hNav1.1 opening | −27.4 ± 1.0 mV | −23.8 ± 1.9 mV | −62.6 ± 0.7 mV | −25.8 ± 1.4 mV | −50.0 ± 0.8 mV | −49.4 ± 0.3 mV | average action potential (firing) threshold ([7]; potential at which rate of rise crosses 40 V/s, control −43.3±2.4 mV): −27.8±1.6 mV; current injection needed to elicit an action potential ([7]; control 20 pA): 80 pA; increase of average latency to GTCS+ vs vehicle ([8]; p<0.0001): 56%; increase of average latency to first GTCS vs vehicle ([8]; p<0.0001): 43%; average latency to the MJ vs vehicle ([8]; p=0.6): comparable; average latency to the first GTCS ([8]; vehicle 281±19 s): 652 ± 48 s; average latency to GTCS with hind limb extension (GTCS+) ([8]; vehicle 652±38 s): 1155 ± 89 s; animals exhibiting behavioral seizures ([9]; 75 mg/kg ip, n=7/24, vehicle 92%): 29%; seizure severity (modified Racine scale) vs vehicle ([9]; p<0.0001): dramatically less severe; reduction in the number of mice exhibiting seizures ([9]; vs vehicle, p<0.0001): 63%; effect on hNav1.1 persistent current ([3]; listed as compound B): did not alter; depolarizing shift in channel activation voltage ([3]; hNav1.1, 100 μM): ~+11 mV; Entry into SI (t) ([3]; hNav1.1 slow inactivation, time-dependence of entry, DMSO 5.6 ± 0.3 s): 5.5 ± 0.4 s; Voltage-dependence of SI (V), V1/2 ([3]; hNav1.1 slow inactivation, DMSO −43.7 ± 1.6 mV): −43.2 ± 1.3 mV; average latency to the first generalized tonic-clonic seizure (GTCS) ([10]; picrotoxin 10 mg/kg, Compound B 75 mg/kg ip 15 min before, vehicle 1006±106 s): 1693 ± 315 s; frequency of the behavioral seizures vs vehicle ([10]; picrotoxin, 75 mg/kg ip): no difference; increase of average latency to first GTCS vs vehicle ([10]; picrotoxin, 75 mg/kg ip, p=0.03): 41%; average latency to forelimb clonus (FC) vs vehicle ([10]; picrotoxin, 75 mg/kg ip, p=0.3): no statistically significant differences; average latency to the first myoclonic jerk (MJ) vs vehicle ([10]; picrotoxin, 75 mg/kg ip, p=0.4): no statistically significant differences
4 | OCc1cn(Cc2cccc(F)c2)nn1 [Compound C, 1-[(3-fluorophenyl)methyl]-1H-1,2,3-Triazole-4-hydroxymethyl] |  |  |  |  | no longer affects hNav1.1 opening | −38.4 ± 1.3 mV |  |  |  |  | −49.2 ± 0.6 mV | 
5 | NC(=O)c1nnn(Cc2cccc(F)c2)c1N [Compound A, 1-[(3-fluorophenyl)methyl]-1H-1,2,3-Triazole-4-carboxamide-5-amine] |  |  |  | neither of these compounds influences | clearly inhibit hNav1.1 opening | −30.8 ± 1.0 mV |  |  |  |  | −50.5 ± 1.2 mV | 
